Results as given in patent US20100292132A1, “USE OF INSULIN C-PEPTIDE, ALONE OR IN COMBINATION WITH GLP-1, AS A THERAPEUTIC AGENT” (priority 2007, published 2010).

Legend:
[1] = system: HIV-1IIIB; assay: HIV-1 antiviral assay (CPE reduction, MTS) in CEM-SS cells; settings: for antiviral activity of positive control compounds: HIV-1IIIB in CEM-SS cells; for reduction of cytopathic effect (CPE) in HIV-1 infected CEM-SS cells: 10 micrograms per ml, HIV-1IIIB, 6 days post-infection
[2] = system: HCMV strain AD169; assay: HCMV plaque formation assay in MRC-5 cells; settings: for inhibition of HCMV plaque formation as compared to the virus control experiment: 10 micrograms per ml, MRC-5 cells, 7-10 days
[3] = system: hepatitis B virus (HBV) ayw strain; assay: HBV replication assay in HepG2-2.2.15 cells (TaqMan PCR of secreted HBV DNA); format: cell-based; settings: 10 micrograms per ml, six days
[4] = system: murine spleen cells; assay: Th1/Th2 cytokine profiling assay; format: cell-based, Balb/c mice; settings: 10 micrograms per ml; Ovalbumin restimulation; 72 hours
From the text: The Balb/c mice (originated in 1923, it is a popular strain and is used in many different research disciplines. Also classified as an inbred from the production of 20 or more successive brother-sister matings, the Balb/c mouse is albino and small in size) were immunized on Days 1, 15, and 29 with Ovalbumin (Ovalbumin is the main protein found in egg white, commonly used to stimulate an immunological reaction in test animals) in PBS (5 micrograms/injection). On day 50, spleens of the mice were harvested (3 weeks after last boost with Ovalbumin). […] Thereafter, additional Ovalbumin was added to the cells at 10 micrograms/ml for in vitro restimulation of the cells. 72 hours later, cell supernatants were harvested and assayed using the Becton Dickinson Mouse Th1/Th2 Cytokine CBA Kit. This kit can be used to measure Interleukin-2 (IL-2), Interleukin-4 (IL-4), Interleukin-5 (IL-5), Interferon-γ(IFN-γ), and Tumor Necrosis Factor-α (TNF-α) protein levels in a single sample. The kit performance has been optimized for analysis of physiologically relevant concentrations (pg/ml levels) of specific cytokine proteins in tissue culture supernatants and serum samples.

[5] = system: Primary Human endothelial cells (HUVEC); assay: Endothelial cell migration assay; format: cell-based; settings: 10 micrograms per ml; 22 hours
Protocol: Primary Human endothelial cells (HUVEC) were seeded in insert chambers with 3 micrometer pore size of multi-transwell plate for 6 hours at 37° C. in Endothelial Cell Basal Medium (EBM) supplemented with 0.1% bovine serum albumin. Thereafter, designated concentration of testing peptides—10 micrograms per ml—was added in duplicate wells. The endothelia were allowed to migrate for 22 hours at 37° C., then, migrated cells were fixed and stained with Hoechst 33342 dye. Images of 3 fields per insert were taken and the number of migrated cells per field were quantified using the ImageProPlus software. Data were analyzed for the average number of the migrated cells and standard deviation of six data points for each treatment condition. Active test peptides against HUVEC migration was determined based on 50% inhibition of migrated cells as compared with the control. Statistic p values were computed using the Student's t-test.

[6] = system: HUVEC; assay: Endothelial tube formation assay; format: cell-based, human; settings: 10 micrograms per ml; 20 hours
Protocol: The endothelial tube formation assay is based on the ability of endothelial cells to form three-dimensional capillary-like tubular structures when cultured on a gel of basement membrane extract. The endothelial tube formation assay represents a powerful model for studying inhibition and induction of angiogenesis. Pre-labeled HUVEC with Calcein AM were seeded in a 96-well culture plate coated with extracellular metrix (Chemicon international Cat. ECM625) and treated with test peptides—10 micrograms per ml—in full growth medium. Positive control wes vehicle only. The endothelial cells were allowed to form tubes foe 20 hours and were then examined under an inverted fluorescent microscope. Duplicate wells for each treatment were photographed and quantitatevily analyzed for an average tubule length using image analysis software ImageProPlus. Raw data were expressed as average tubule lenghs in pixels ± standard deviation. Statistic p values were computed using the Student's t-test.

Compound	antiviral activity of positive control compounds [1]	inhibition of HBV replication as compared to the virus control infection [3] [%]	reduction of cytopathic effect (CPE) in HIV-1 infected CEM-SS cells [1] [%]	inhibition of HCMV plaque formation as compared to the virus control experiment [2]	change of the production of IL-5 [4]	change of the production of TNF-alpha [4]	inhibition of the migration of human endothelial cells [5] [%]	inhibition of the tube formation of human endothelial cells [6] [%]	further results
CC(C)(C)NC(=O)[C@@H]1CN(Cc2cccnc2)CCN1C[C@@H](O)C[C@@H](Cc1ccccc1)C(=O)N[C@H]1c2ccccc2C[C@H]1O [indinavir, reference compound]	expected levels of antiviral activity	–	–	–	–	–	–	–	–
Nc1nc(O)c2ncn(COC(CO)CO)c2n1 [Ganciclovir, reference compound]	–	–	–	–	–	–	–	–	antiviral activity of positive control compound ([2]; HCMV in MRC-5 cells): expected levels of antiviral activity
His-Ala-Glu-Gly-Thr-Phe-Thr-Ser-Asp-Val-Ser-Ser-Tyr-Leu-Glu-Gly-Gln-Ala-Ala-Lys-Glu-Phe-Ile-Ala-Trp-Leu-Val-Lys-Gly-Arg-NH2 [Peptide 2]	–	37.2	61.1	2.9%	did not significantly change	did not significantly change	6	1	decrease of the production of IFN-gamma [4]: 39.7%; decrease of the production of IL-2 [4]: 45.7%; decrease of the production of IL-4 [4]: 70.9%
Cc1cn([C@H]2C[C@H](N=[N+]=[N-])[C@@H](CO)O2)c(=O)[nH]c1=O [AZT, reference compound]	expected levels of antiviral activity	–	–	–	–	–	–	–	–
Glu-Ala-Glu-Asp-Leu-Gln-Val-Gly-Gln-Val-Glu-Leu-Gly-Gly-Gly-Pro-Gly-Ala-Gly-Ser-Leu-Gln-Pro-Leu-Ala-Leu-Glu-Gly-Ser-Leu-Gln-OH (EAEDLQVGQVELGGGPGAGSLQPLALEGSLQ; printed: Glu-Ala-Glu-Asp-Leu-Gln-Val-Gly-Gln-Val-Glu-Leu-Gly-Gly-Gly-Pro-Gly-Ala-Gly-Ser-Leu-Gln-Pro-Leu-Ala-Leu-Glu-Gly-Ser-Leu-Gln-) [Peptide 1]	–	13.6	93.6	did not inhibit	did not significantly change	did not significantly change	29	19	change of the production of IFN-gamma [4]: did not significantly change; induction of the production of IL-2 [4]: 24.6%; induction of the production of IL-4 [4]: 34.7%
